Patent US12410153B2, “Compounds, compositions and methods” (Avalo Therapeutics, Inc., priority 2014, dated 2025)
Where two headings read alike, the source gives them in different places.

How the values were obtained:
Sprague-Dawley rats [1] = test: Rat forced swim test 24 hours after administration; assay type: in vivo; conditions: 10 mg/kg, p.o., 24 hours before test, p<0.05
Description: This study aimed to evaluate the duration of the antidepressant-like effects of Form II of Compound (I) using the forced swim test in male, Sprague-Dawley rats. Clinically effective antidepressant compounds reduce immobility time and increase swimming in rodents subjected to this test. Rats received Compound (I) (10 mg/kg, p.o.) or ketamine (10 mg/kg, i.p.) and 24 hours later were subjected to testing. […] The data represent mean±SEM.

Sprague-Dawley rats [2] = test: Acute depression model, forced swim test; assay type: in vivo, rat; conditions: for RO: corresponding to plasma level; for ED50: Rattus norvegicus
Description: (§1) Young, adult, male Sprague-Dawley rats were randomly assigned across the treatment groups and were administered vehicle (0.5% MC/0.02% SLS), the reference compound desipramine (20 mg/kg; a tricyclic antidepressant; Sigma, Lot #078K1326) dissolved in sterile water, or crystalline Form II of Compound (I) (0.1, 0.3, 1, 3, 10, and 30 mg/kg) suspended in 0.5% MC/0.02% SLS, twice on Day 1 (after habituation; ˜24 h prior to test, and prior to dark cycle) and once on Day 2 (30 min pre-test for desipramine and 45 min pre-test for Form II and vehicle).
(§2) Each Forced Swim chamber was constructed of clear acrylic (height, 40 cm; diameter, 20.3 cm). Rats were subjected to a pre-dose swim test of one 15-min session in cylinders containing water at 23° C.±1° C., followed approximately 24 h later by the experimental 5-min session. The water level was 16 cm deep during habituation and 30 cm deep during the test. Immobility, climbing, and swimming behaviors were recorded every 5 s for a total of 60 counts per subject. When an animal was unable to maintain a posture with its nose above water, it was immediately removed from the water and eliminated from the study. Blood was collected at the completion of swim test procedures and plasma was analyzed for Form II concentrations.

[3] = Acute depression model, forced swim test; assay type: in vivo, rat; conditions: male, Sprague-Dawley, rat, plasma, read-out: plasma level at time of sampling
Description: as §1, §2

[4] = Human pharmacokinetic study, single ascending oral doses; assay type: in vivo; conditions: for AUC(0-inf) / AUC(0-t) / Cmax / Tmax / half-life: male, human, plasma, oral
Description: Twenty-four healthy, young male subjects were assigned to 1 of 3 sequential treatment panels (A, B, and C). For each panel of 8 subjects, 2 subjects received placebo and 6 subjects were administered single ascending oral doses of crystalline Form II of Compound (I) with a minimum 7-day washout between each dose: Panel A (0.1, 0.2, 0.5, 1, and 2 mg); Panel B (2, 4, 8, and 15 mg, and 4 mg with food); and Panel C (15 and 20 mg). Blood samples were collected pre-dose and 0.5, 1, 1.5, 2, 3, 4, 6, 9, 12, 18, 24, 30, 48, and 72 h post dose. Plasma samples were analyzed for Form II concentrations using reversed phase high performance liquid chromatography with tandem mass spectrometric detection (Merck Research Laboratories). The analytical range was 0.5 to 500 nM (0.180 to 180 ng/mL).

[5] = Cardiovascular safety in anesthetized dogs, continuous IV infusion 90 min; assay type: in vivo, dog; conditions: dog, plasma, escalating IV infusion rates, read-out: plasma concentration at the end of infusion
Description: (§3) The potential effects of Form II of Compound (I) on the functions of the nervous system, cardiovascular system, and respiratory system were evaluated in a battery of safety pharmacology studies that included an in vitro human ether-a-go-go-related gene (hERG) assay and in vivo studies in rats, dogs, and monkeys. CNS effects were tested in rats at single doses at 15, 75, and 225 mg/kg.
(§4) Effects of Form II on the cardiovascular system were tested in several studies. Potential QTc effects were tested in vitro and in vivo.
(§5) Hemodynamic effects were tested in dogs and monkeys. […] However, Form II did produce dose-independent increases in systolic (12-15 mm Hg), diastolic (7-10 mm Hg), and mean arterial pressures (9-12 mm Hg) in conscious, chair-restrained monkeys given single oral doses at 15, 75, or 150 mg/kg and monitored for 6 h post-dose.

dogs = test: as above; assay type: in vivo, dog; conditions: escalating IV infusion rates
Description: as §3, §4, §5

## Cc1ccc(COC(=O)N2CC[C@H](CNc3ncccn3)[C@H](F)C2)cc1 [Form II, 4-methylbenzyl (3S, 4R)-3-fluoro-4-[(pyrimidin-2-ylamino)methyl] piperidine-1-carboxylate]
Sprague-Dawley rats [1]
  immobility: reduced immobility
  swim time: increased swim time significantly
Sprague-Dawley rats [2]; 0.1 mg/kg
  RO: approximately 5%
Sprague-Dawley rats [2]; 0.3 mg/kg
  RO: ~29%
Sprague-Dawley rats [2]; 1 mg/kg
  RO: ~56%
Sprague-Dawley rats [2]; 3 mg/kg
  RO: ~83%
Sprague-Dawley rats [2]; 10 mg/kg
  RO: ~94%
Sprague-Dawley rats [2]; 30 mg/kg
  RO: ~98%
Sprague-Dawley rats [2]; 1, 3, 10, and 30 mg/kg vs vehicle
  climbing behavior: did not affect climbing behavior except at the dose of 3 mg/kg
Sprague-Dawley rats [2]; 1, 3, 10, and 30 mg/kg vs vehicle, P<0.001
  immobility frequency: significantly decreased
Sprague-Dawley rats [2]; 1, 3, 10, and 30 mg/kg vs vehicle, P<0.01 (P<0.05 for 10 mg/kg)
  swimming behavior: significantly increased
Sprague-Dawley rats [2]; read-out: ED50 for decrease in immobility
  ED50: ~0.7 mg/kg
Sprague-Dawley rats [2]; read-out: ED50 for increase in frequency of swimming
  ED50: ~0.3 mg/kg
Sprague-Dawley rats [2]; rat, in vivo
  RO corresponding to ED50 for immobility: ~50%
  RO corresponding to ED50 for swimming: ~30%
[3]; 0.1 mg/kg
  concentration at 50 min: ~0.015 µM
[3]; 0.3 mg/kg
  concentration at 50 min: ~0.12 µM
[3]; 1 mg/kg
  concentration at 50 min: ~0.39 µM
[3]; 3 mg/kg
  concentration at 50 min: ~1.42 µM
[3]; 10 mg/kg
  concentration at 50 min: ~4.7 µM
[3]; 30 mg/kg
  concentration at 50 min: ~14.1 µM
[4]; 4 mg
  decrease in Cmax, fed vs fasted: ~56%
  delay in Tmax, fed vs fasted: ~1 h
  overall extent of absorption (AUC), fed vs fasted: not affected
[4]; 2 mg, fasted, mean
  AUC(0-inf): 0.493 µg·h/mL
  AUC(0-t): 0.398 µg·h/mL
  Cmax: 0.0515 µg/mL
[4]; 2 mg, fasted, mean, read-out: Tmax
  Tmax: 1.08 h
[4]; 2 mg, fasted, mean, read-out: t1/2 (converted)
  half-life: 16.1 h
[4]; 4 mg, 4 mg (fed), mean
  AUC(0-inf): 1.14 µg·h/mL
  AUC(0-t): 1.08 µg·h/mL
  Cmax: 0.08 µg/mL
[4]; 4 mg, 4 mg (fed), mean, read-out: Tmax
  Tmax: 2 h
[4]; 4 mg, 4 mg (fed), mean, read-out: t1/2 (converted)
  half-life: 17.3 h
[4]; 4 mg, fasted, mean
  AUC(0-inf): 1.11 µg·h/mL
  AUC(0-t): 1.06 µg·h/mL
  Cmax: 0.141 µg/mL
[4]; 4 mg, fasted, mean, read-out: Tmax
  Tmax: 0.67 h
[4]; 4 mg, fasted, mean, read-out: t1/2 (converted)
  half-life: 16.9 h
[4]; 8 mg, fasted, mean
  AUC(0-inf): 2.26 µg·h/mL
  AUC(0-t): 2.15 µg·h/mL
  Cmax: 0.212 µg/mL
[4]; 8 mg, fasted, mean, read-out: Tmax
  Tmax: 0.92 h
[4]; 8 mg, fasted, mean, read-out: t1/2 (converted)
  half-life: 17 h
[4]; 15 mg, fasted, mean
  AUC(0-inf): 4.4 µg·h/mL
  AUC(0-t): 3.52 µg·h/mL
  Cmax: 0.385 µg/mL
[4]; 15 mg, fasted, mean, read-out: Tmax
  Tmax: 1.04 h
[4]; 15 mg, fasted, mean, read-out: t1/2 (converted)
  half-life: 16.8 h
[4]; 20 mg, fasted, mean
  AUC(0-inf): 5.91 µg·h/mL
  AUC(0-t): 5.59 µg·h/mL
  Cmax: 0.59 µg/mL
[4]; 20 mg, fasted, mean, read-out: Tmax
  Tmax: 1 h
[4]; 20 mg, fasted, mean, read-out: t1/2 (converted)
  half-life: 15.9 h
[4]; across all fasted dose levels, read-out: mean Tmax
  Tmax: ≤ 1 h
[4]; over the 4- to 20-mg dose range, read-out: terminal elimination half-life
  half-life: 12 to 17 h
[4]; over the dose range studied
  Cmax and AUC vs dose: dose-proportional
[5]
  concentration at 90 min: ~74 µM
dogs
  heart rate, arterial blood pressure, femoral blood flow: did not affect
  heart rhythm and ECG parameters incl. QTc interval: did not affect
